Laboratory results reported in patent publication US5595995A, “Pyridyl-propan-2-yl esters of 1-adamantane carboxylates” (priority 1992, dated 1997).
pIC50: −log10 of the molar value.

Experiments:
[1] = resistance of the esters to hydrolytic cleavage (method of R. McCague et al., 1990); conditions: compared with the other esters of Examples 1-8
[2] = target: T1, hydroxylase (Homo sapiens, UniProt P05093); assay: biochemical
T1 sequence (P05093 1-508): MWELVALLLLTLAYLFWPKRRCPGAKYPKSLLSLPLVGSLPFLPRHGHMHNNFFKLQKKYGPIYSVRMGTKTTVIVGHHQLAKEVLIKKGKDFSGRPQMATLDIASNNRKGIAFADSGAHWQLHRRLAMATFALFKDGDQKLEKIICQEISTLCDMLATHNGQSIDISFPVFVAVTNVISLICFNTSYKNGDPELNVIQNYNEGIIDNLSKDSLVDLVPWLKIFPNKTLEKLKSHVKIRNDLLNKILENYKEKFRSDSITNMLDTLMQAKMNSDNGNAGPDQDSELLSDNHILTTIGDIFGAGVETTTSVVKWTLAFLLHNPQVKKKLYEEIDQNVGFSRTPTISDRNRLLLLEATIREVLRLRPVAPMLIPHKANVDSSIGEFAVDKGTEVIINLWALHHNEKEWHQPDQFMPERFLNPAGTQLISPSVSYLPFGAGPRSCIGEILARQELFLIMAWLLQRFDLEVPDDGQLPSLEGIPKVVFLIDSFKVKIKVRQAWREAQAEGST
Procedure: (§1) In the hydroxylase assay, the "Nucleosil" pre-column for separation of steroids was also "C18". In the lyase assay, the reaction was stopped after 1/2 hour. […] The enzyme activity was measured from 3 (not 4) concentrations of compound.

[3] = target: T2, lyase (Homo sapiens, UniProt P05093); assay: biochemical
T2 sequence (P05093 1-508): T1 sequence (P05093 1-508)
Procedure: as §1

[4] = target: T3, 17α-hydroxylase/C17-20 lyase enzyme complex (Homo sapiens, UniProt P05093); assay: hydroxylase/lyase inhibition, general statements on potency; type: biochemical; conditions: of the order of; greater than the less good compounds of formula (3)
T3 construct: for hydroxylase determinations, the microsomal preparation, prepared according to S. E. Bartie et al; from tissue
T3 sequence (P05093 1-508): T1 sequence (P05093 1-508)
Procedure: as §1

[5] = target: T4, aromatase (Homo sapiens, UniProt P11511); assay: biochemical
T4 sequence (P11511 1-503): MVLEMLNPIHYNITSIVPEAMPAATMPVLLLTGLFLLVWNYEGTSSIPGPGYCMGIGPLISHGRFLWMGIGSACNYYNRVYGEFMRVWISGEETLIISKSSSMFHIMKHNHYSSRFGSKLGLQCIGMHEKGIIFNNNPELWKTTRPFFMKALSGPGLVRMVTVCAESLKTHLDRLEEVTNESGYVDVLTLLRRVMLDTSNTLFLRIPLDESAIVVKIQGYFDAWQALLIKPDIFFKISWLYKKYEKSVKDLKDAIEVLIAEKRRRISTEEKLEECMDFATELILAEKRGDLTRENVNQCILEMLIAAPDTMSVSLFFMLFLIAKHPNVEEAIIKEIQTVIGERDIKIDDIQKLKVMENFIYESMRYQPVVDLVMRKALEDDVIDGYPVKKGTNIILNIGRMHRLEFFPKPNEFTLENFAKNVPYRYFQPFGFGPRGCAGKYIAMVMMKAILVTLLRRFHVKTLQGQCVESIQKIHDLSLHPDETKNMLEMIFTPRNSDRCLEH

[6] = system: a species of yeast; conditions: Korytnyk and Fricke, J. Med. Chem. 11, 180-181 (1968); cited from earlier work
[7] = system: acute toxicity in mice of 4-vinylpyridine; conditions: J. Med. Chem. 16, 865-867 (1973); cited from earlier work

In the case of `CC(C)(OC(=O)C12CC3CC(CC(C3)C1)C2)c1cccnc1` [Example 8, 2-(3-Pyridyl)propan-2-yl 1-adamantanecarboxylate], the “resistance to hydrolytic cleavage” value [1] was “considerably more resistant to cleavage than the other esters”.
In the case of `O=C(NCc1ccncc1)C1CCCCC1` [Cy NH H H 4, reference compound], the pIC50 [2] was 4.40, the pIC50 [3] was 5.00 and the “IC50 against lyase and hydroxylase relative to the less good compounds of formula (3)” value [4] was about 20 ×.
Compound `CC(CC(=O)C12CC3CC(CC(C3)C1)C2)c1cccnc1` (racemic) [Example 10, (±)-1-(1-Adamantyl)-3-(3-pyridyl)butan-1-one] has a pIC50 [2] of 5.89, a pIC50 [3] of 6.30 and a pIC50 [5] of 5.85.
With `CC(C)(OC(=O)C12CC3CC(CC(C3)C1)C2)c1ccncc1` [Example 4, 2-(4-Pyridyl)propan-2-yl 1-adamantanecarboxylate] the “resistance to hydrolytic cleavage” value [1] was “considerably more resistant to cleavage than the other esters”.
Compound `CC(Cc1cccnc1)C(=O)C12CC3CC(CC(C3)C1)C2` (racemic) [Example 11, (±)-1-(1-Adamantyl)-2-methyl-3-(3-pyridyl)propan-1-one] has a pIC50 [2] of 6.00, a pIC50 [3] of 6.15 and a pIC50 [5] of 5.57.
In the case of `Cc1c(COC(=O)C23CC4CC(CC(C4)C2)C3)cc(CO)nc1O`, the “growth inhibition of yeast” value [6] is listed as “weak growth inhibitors of a species of yeast”.
In the case of `O=C(CCc1cccnc1)C12CC3CC(CC(C3)C1)C2` [Example 9, 1-(1-Adamantyl)-3-(3-pyridyl)propan-1-one], the pIC50 [2] was 5.66, the pIC50 [3] was 6.35 and the pIC50 [5] was 5.47.
In the case of `Cc1c(COC(=O)C23CC4CC(CC(C4)C2)C3)cnc(CO)c1O`, the “growth inhibition of yeast” value [6] is given as “weak growth inhibitors of a species of yeast” and the “reversal of the acute toxicity of 4-vinylpyridine” value [7] is given as “reverse the acute toxicity in mice of 4-vinylpyridine”.
